Source: patent US11019818B2, “Herbicidal 3-substituted lactams” (FMC Corporation, priority 2017, dated 2021)

Legend:
Format in all cases: in vivo
[1] = test system: galium (catchweed bedstraw, Galium aparine); assay: Test A postemergence, galium; conditions: 0 to 100 scale (0 no effect, 100 complete control), approx. 10 d
Description: (§1) Seeds of plant species selected from barnyardgrass (Echinochloa crus-galli), kochia (Kochia scoparia), ragweed (common ragweed, Ambrosia elatior), ryegrass, Italian (Italian ryegrass, Lolium multiflorum), foxtail, green (green foxtail, Setaria viridis), and pigweed (Amaranthus retroflexus) were planted into a blend of loam soil and sand and treated preemergence with a directed soil spray using test chemicals formulated in a non-phytotoxic solvent mixture which included a surfactant. At the same time, plants selected from these weed species and also wheat (Triticum aestivum), corn (Zea mays), blackgrass (Alopecurus myosuroides), and galium (catchweed bedstraw, Galium aparine) were planted in pots containing the same blend of loam soil and sand and treated with postemergence applications of test chemicals formulated in the same manner. Plants ranged in height from 2 to 10 cm and were in the one- to two-leaf stage for the postemergence treatment. Treated plants and untreated controls were maintained in a greenhouse for approximately 10 d, after which time all treated plants were compared to untreated controls and visually evaluated for injury. Plant response ratings, summarized in Table A, are based on a 0 to 100 scale where 0 is no effect and 100 is complete control. A dash (-) response means no test result.

[2] = test system: ducksalad (Heteranthera limosa); assay: Test B flooded paddy test, ducksalad; conditions: Flood, 250 g ai/ha; applied to paddy water at 2-leaf stage; visual rating after 13 to 15 d; scale 0 to 100, 0 is no effect, 100 is complete control
Experimental: (§2) Plant species in the flooded paddy test selected from rice (Oryza sativa), sedge, umbrella (small-flower umbrella sedge, Cyperus difformis), ducksalad (Heteranthera limosa), and barnyardgrass (Echinochloa crus-galli) were grown to the 2-leaf stage for testing. At time of treatment, test pots were flooded to 3 cm above the soil surface, treated by application of test compounds directly to the paddy water, and then maintained at that water depth for the duration of the test. Treated plants and controls were maintained in a greenhouse for 13 to 15 d, after which time all species were compared to controls and visually evaluated. Plant response ratings, summarized in Table B, are based on a scale of 0 to 100 where 0 is no effect and 100 is complete control. A dash (-) response means no test result.

corn (Zea mays) = assay: Test A postemergence, corn; conditions: 0 to 100 scale (0 no effect, 100 complete control), approx. 10 d
Description: as §1

kochia (Kochia scoparia) [3] = assay: Test A postemergence, kochia; conditions: 0 to 100 scale (0 no effect, 100 complete control), approx. 10 d
Description: as §1

[4] = test system: foxtail, green (green foxtail, Setaria viridis); assay: Test A postemergence, green foxtail; conditions: 0 to 100 scale (0 no effect, 100 complete control), approx. 10 d
Description: as §1

kochia (Kochia scoparia) [5] = assay: Test A preemergence, kochia; conditions: 0 to 100 scale (0 no effect, 100 complete control), approx. 10 d
Description: as §1

[6] = test system: pigweed (Amaranthus retroflexus); assay: Test A preemergence, pigweed; conditions: 0 to 100 scale (0 no effect, 100 complete control), approx. 10 d
Description: as §1

[7] = test system: ragweed (common ragweed, Ambrosia elatior); assay: Test A postemergence, ragweed; conditions: 0 to 100 scale (0 no effect, 100 complete control), approx. 10 d
Description: as §1

[8] = test system: ragweed (common ragweed, Ambrosia elatior); assay: Test A preemergence, ragweed; conditions: 0 to 100 scale (0 no effect, 100 complete control), approx. 10 d
Description: as §1

[9] = test system: foxtail, green (green foxtail, Setaria viridis); assay: Test A preemergence, green foxtail; conditions: 0 to 100 scale (0 no effect, 100 complete control), approx. 10 d
Description: as §1

[10] = test system: sedge, umbrella (small-flower umbrella sedge, Cyperus difformis); assay: Test B flooded paddy test, umbrella sedge; conditions: Flood, 250 g ai/ha; applied to paddy water at 2-leaf stage; visual rating after 13 to 15 d; scale 0 to 100, 0 is no effect, 100 is complete control
Experimental: as §2

[11] = test system: barnyardgrass (Echinochloa crus-galli); assay: Test A postemergence, barnyardgrass; conditions: 0 to 100 scale (0 no effect, 100 complete control), approx. 10 d
Description: as §1

[12] = test system: barnyardgrass (Echinochloa crus-galli); assay: Test B flooded paddy test, barnyardgrass; conditions: Flood, 250 g ai/ha; applied to paddy water at 2-leaf stage; visual rating after 13 to 15 d; scale 0 to 100, 0 is no effect, 100 is complete control
Experimental: as §2

[13] = test system: ryegrass, Italian (Italian ryegrass, Lolium multiflorum); assay: Test A postemergence, Italian ryegrass; conditions: 0 to 100 scale (0 no effect, 100 complete control), approx. 10 d
Description: as §1

rice (Oryza sativa) = assay: Test B flooded paddy test, rice; conditions: Flood, 250 g ai/ha; applied to paddy water at 2-leaf stage; visual rating after 13 to 15 d; scale 0 to 100, 0 is no effect, 100 is complete control
Experimental: as §2

[14] = test system: barnyardgrass (Echinochloa crus-galli); assay: Test A preemergence, barnyardgrass; conditions: 0 to 100 scale (0 no effect, 100 complete control), approx. 10 d
Description: as §1

[15] = test system: pigweed (Amaranthus retroflexus); assay: Test A postemergence, pigweed; conditions: 0 to 100 scale (0 no effect, 100 complete control), approx. 10 d
Description: as §1

[16] = test system: blackgrass (Alopecurus myosuroides); assay: Test A postemergence, blackgrass; conditions: 0 to 100 scale (0 no effect, 100 complete control), approx. 10 d
Description: as §1

[17] = test system: ryegrass, Italian (Italian ryegrass, Lolium multiflorum); assay: Test A preemergence, Italian ryegrass; conditions: 0 to 100 scale (0 no effect, 100 complete control), approx. 10 d
Description: as §1

[18] = test system: wheat (Triticum aestivum); assay: Test A postemergence, wheat; conditions: 0 to 100 scale (0 no effect, 100 complete control), approx. 10 d
Description: as §1

For `CN1C[C@H](c2ccc(C(F)(F)F)cc2)[C@@](CO)(C(=O)Nc2cccc(F)c2F)C1=O` [Compound 5, (3R,4R)—N-(2,3-difluorophenyl)-3-(hydroxymethyl)-1-methyl-2-oxo-4-[4-(trifluoromethyl)phenyl]-3-pyrrolidinecarboxamide], the “Plant response rating, Galium” value ([1]; 31 g ai/ha) was 40, the “Plant response rating, Galium” value ([1]; 125 g ai/ha) was 40 and the “Plant response rating, Ducksalad” value [2] was 90. For the same compound, the “Plant response rating, Corn” value (corn (Zea mays); 31 g ai/ha) was 0, the “Plant response rating, Corn” value (corn (Zea mays); 125 g ai/ha) was 60 and the “Plant response rating, Kochia” value (kochia (Kochia scoparia) [3]; 31 g ai/ha) was 30. For the same compound, the “Plant response rating, Kochia” value (kochia (Kochia scoparia) [3]; 125 g ai/ha) was 70, the “Plant response rating, Foxtail, Green” value ([4]; 31 g ai/ha) was 30 and the “Plant response rating, Foxtail, Green” value ([4]; 125 g ai/ha) was 80. For the same compound, the “Plant response rating, Kochia” value (kochia (Kochia scoparia) [5]; 31 g ai/ha) was 0, the “Plant response rating, Kochia” value (kochia (Kochia scoparia) [5]; 125 g ai/ha) was 60 and the “Plant response rating, Pigweed” value ([6]; 31 g ai/ha) was 0. For the same compound, the “Plant response rating, Pigweed” value ([6]; 125 g ai/ha) was 60, the “Plant response rating, Ragweed” value ([7]; 31 g ai/ha) was 0 and the “Plant response rating, Ragweed” value ([7]; 125 g ai/ha) was 40. The “Plant response rating, Ragweed” value ([8]; 31 g ai/ha) was 0, the “Plant response rating, Ragweed” value ([8]; 125 g ai/ha) was 60 and the “Plant response rating, Foxtail, Green” value ([9]; 31 g ai/ha) was 70. The “Plant response rating, Foxtail, Green” value ([9]; 125 g ai/ha) was 90, the “Plant response rating, Sedge, Umbrella” value [10] was 0 and the “Plant response rating, Barnyardgrass” value ([11]; 31 g ai/ha) was 30. For the same compound, the “Plant response rating, Barnyardgrass” value ([11]; 125 g ai/ha) was 80, the “Plant response rating, Barnyardgrass” value [12] was 65 and the “Plant response rating, Ryegrass, Italian” value ([13]; 31 g ai/ha) was 20. For the same compound, the “Plant response rating, Ryegrass, Italian” value ([13]; 125 g ai/ha) was 50, the “Plant response rating, Rice” value (rice (Oryza sativa)) was 25 and the “Plant response rating, Barnyardgrass” value ([14]; 31 g ai/ha) was 80. For the same compound, the “Plant response rating, Barnyardgrass” value ([14]; 125 g ai/ha) was 90, the “Plant response rating, Pigweed” value ([15]; 31 g ai/ha) was 30 and the “Plant response rating, Pigweed” value ([15]; 125 g ai/ha) was 50. The “Plant response rating, Blackgrass” value ([16]; 31 g ai/ha) was 0, the “Plant response rating, Blackgrass” value ([16]; 125 g ai/ha) was 30 and the “Plant response rating, Ryegrass, Italian” value ([17]; 31 g ai/ha) was 10. For the same compound, the “Plant response rating, Ryegrass, Italian” value ([17]; 125 g ai/ha) was 80, the “Plant response rating, Wheat” value ([18]; 31 g ai/ha) was 0 and the “Plant response rating, Wheat” value ([18]; 125 g ai/ha) was 30.
With `CN(C)CC1(C(=O)Nc2cccc(F)c2F)C(=O)N(C)CC1c1ccc(C(F)(F)F)cc1` (stereo not drawn) [Compound 9] the “Plant response rating, Galium” value ([1]; 31 g ai/ha) was 60, the “Plant response rating, Galium” value ([1]; 125 g ai/ha) was 60 and the “Plant response rating, Ducksalad” value [2] was 95. For the same compound, the “Plant response rating, Corn” value (corn (Zea mays); 31 g ai/ha) was 40, the “Plant response rating, Corn” value (corn (Zea mays); 125 g ai/ha) was 50 and the “Plant response rating, Kochia” value (kochia (Kochia scoparia) [3]; 31 g ai/ha) was 50. For the same compound, the “Plant response rating, Kochia” value (kochia (Kochia scoparia) [3]; 125 g ai/ha) was 70, the “Plant response rating, Foxtail, Green” value ([4]; 31 g ai/ha) was 50 and the “Plant response rating, Foxtail, Green” value ([4]; 125 g ai/ha) was 90. The “Plant response rating, Kochia” value (kochia (Kochia scoparia) [5]; 31 g ai/ha) was 30, the “Plant response rating, Kochia” value (kochia (Kochia scoparia) [5]; 125 g ai/ha) was 70 and the “Plant response rating, Pigweed” value ([6]; 31 g ai/ha) was 70. The “Plant response rating, Pigweed” value ([6]; 125 g ai/ha) was 80, the “Plant response rating, Ragweed” value ([7]; 31 g ai/ha) was 30 and the “Plant response rating, Ragweed” value ([7]; 125 g ai/ha) was 30. For the same compound, the “Plant response rating, Ragweed” value ([8]; 31 g ai/ha) was 0, the “Plant response rating, Ragweed” value ([8]; 125 g ai/ha) was 60 and the “Plant response rating, Foxtail, Green” value ([9]; 31 g ai/ha) was 90. The “Plant response rating, Foxtail, Green” value ([9]; 125 g ai/ha) was 90, the “Plant response rating, Sedge, Umbrella” value [10] was 0 and the “Plant response rating, Barnyardgrass” value ([11]; 31 g ai/ha) was 70. The “Plant response rating, Barnyardgrass” value ([11]; 125 g ai/ha) was 90, the “Plant response rating, Barnyardgrass” value [12] was 65 and the “Plant response rating, Ryegrass, Italian” value ([13]; 31 g ai/ha) was 50. For the same compound, the “Plant response rating, Ryegrass, Italian” value ([13]; 125 g ai/ha) was 60, the “Plant response rating, Rice” value (rice (Oryza sativa)) was 0 and the “Plant response rating, Barnyardgrass” value ([14]; 31 g ai/ha) was 90. For the same compound, the “Plant response rating, Barnyardgrass” value ([14]; 125 g ai/ha) was 90, the “Plant response rating, Pigweed” value ([15]; 31 g ai/ha) was 30 and the “Plant response rating, Pigweed” value ([15]; 125 g ai/ha) was 80. The “Plant response rating, Blackgrass” value ([16]; 31 g ai/ha) was 50, the “Plant response rating, Blackgrass” value ([16]; 125 g ai/ha) was 60 and the “Plant response rating, Ryegrass, Italian” value ([17]; 31 g ai/ha) was 60. For the same compound, the “Plant response rating, Ryegrass, Italian” value ([17]; 125 g ai/ha) was 80, the “Plant response rating, Wheat” value ([18]; 31 g ai/ha) was 30 and the “Plant response rating, Wheat” value ([18]; 125 g ai/ha) was 60.
